In patent US7365174B2, “Azalide and azalactam derivatives and method for producing the same” (Meiji Seika Kaisha, Ltd., priority 2003, dated 2008):
Values after ≈ are worked out from the molar mass of the structure shown. Like-named read-outs stand apart in the source and are kept apart here.

Experiments:
Assay in all cases: Antibacterial activity test (agar dilution MIC)
Format in all cases: cell-based
[1] = tested on: Moraxella catarrhalis W-0506; conditions: read-out: Minimum inhibitory concentration (MIC)
Experimental: (§1) In vitro antibacterial activities of the compounds of Examples 13, 28, 35, 43, 53 to 55, 64, 70, 84, 90, 94, 95, 108, 128, and 129 were measured as follows by referring to the standard method of the Japanese Society of Chemotherapy (Chemotherapy, Vol. 29, pp. 76-79, 1981). The antibacterial activity of midecamycin (MDM) was similarly measured for comparison.
(§2) Using each solution of the test substance prepared in methanol at a concentration of […], 2-fold serial dilutions were prepared by using methanol. Each of the prepared solutions of the test substances was put into a petri dish in a volume of 200 μl, added with 10 ml of agar medium for sensitivity measurement added with 5% horse sterile defibrinated blood, 15 μg/ml of β-nicotinamide-adenine dinucleotide, and 2.5 μg/ml of Hemin, and mixed for dilution to prepare an agar plate containing a test substance. A predetermined volume of a liquid medium for sensitivity measurement, prepared so as to contain a given number of test bactera, was inoculated on the agar plate containing a test substance by using a micro planter (Sakuma Seisakusho), and after the inoculation, the bacteria were cultured at 37° C. for about 20 hours. After the culture, presence or absence of growth of the test bacteria on the plate was observed by visual inspection, and the minimum concentration at which growth was not observed was determined as the minimum inhibitory concentration (MIC) of the test sustance.

[2] = tested on: Haemophilus influenzae 9334; conditions: read-out: Minimum inhibitory concentration (MIC)
Experimental: as §1, §2

[3] = tested on: Staphylococcus aureus 209P JC-1; conditions: read-out: Minimum inhibitory concentration (MIC)
Experimental: as §1, §2

[4] = tested on: Streptococcus pyogenes Cook; conditions: read-out: Minimum inhibitory concentration (MIC)
Experimental: as §1, §2

[5] = tested on: Streptococcus pneumoniae DP1 TypeI; conditions: DP1TYPEI, read-out: Minimum inhibitory concentration (MIC)
Experimental: as §1, §2

[6] = tested on: Streptococcus pneumoniae IP692; conditions: read-out: Minimum inhibitory concentration (MIC)
Experimental: as §1, §2

[7] = tested on: Streptococcus pneumoniae TH-662; conditions: read-out: Minimum inhibitory concentration (MIC)
Experimental: as §1, §2

[8] = W0506, test bacterium F = Moraxella catarrhalis W-0506, blood agar medium, 37° C., about 20 hours
[9] = test bacterium G = Haemophilus influenzae 9334, blood agar medium, 37° C., about 20 hours
[10] = test bacterium A = Staphylococcus aureus 209P JC-1, blood agar medium, 37° C., about 20 hours
[11] = test bacterium E = Streptococcus pyogenes Cook, blood agar medium, 37° C., about 20 hours
[12] = test bacterium B = Streptococcus pneumoniae DP1 TypeI, blood agar medium, 37° C., about 20 hours
[13] = test bacterium C = Streptococcus pneumoniae IP692, blood agar medium, 37° C., about 20 hours
[14] = TH662, test bacterium D = Streptococcus pneumoniae TH-662, blood agar medium, 37° C., about 20 hours

SMILES | MIC [1, 8] [µg/mL] | MIC [2, 9] [µg/mL] | MIC [3, 10] [µg/mL] | MIC [4, 11] [µg/mL] | MIC [5, 12] [µg/mL] | MIC [6, 13] [µg/mL] | MIC [7, 14] [µg/mL] | MIC ([1]; Moraxella catarrhalis, W0506, 20 h) [µg/mL] | MIC ([2]; Haemophilus influenzae, 9334, 20 h) [µg/mL] | MIC ([3]; Staphylococcus aureus, 209P, 20 h) [µg/mL] | MIC ([4]; Streptococcus pyogenes, 20 h) [µg/mL] | MIC ([5]; Streptococcus pneumoniae, 20 h) [µg/mL] | MIC ([6]; Streptococcus pneumoniae, IP692, 20 h) [µg/mL] | MIC ([7]; Streptococcus pneumoniae, TH662, 20 h) [µg/mL]
CCC(=O)O[C@@H]1CC(=O)O[C@@H](C/C=C/c2ccc3ccccc3c2)CCCN(C)C[C@H](O)[C@H](C)C[C@H](CC=O)[C@H](O[C@@H]2OC(C)[C@@H](O[C@H]3CC(C)(O)[C@@H](OC(=O)CC)C(C)O3)C(N(C)C)C2O)[C@H]1OC (some centres unmarked) [Example 84] | 2 (≈ 2.03 µM) | 8 (≈ 8.12 µM) | 0.5 (≈ 0.507 µM) | 0.25 (≈ 0.254 µM) | 0.06 (≈ 0.0609 µM) | 0.06 (≈ 0.0609 µM) | 8 (≈ 8.12 µM) |  |  |  |  |  |  | 
CCC(=O)O[C@@H]1CC(=O)O[C@@H](C/C=C/c2cnc3ncccc3c2)CCCN(C)C[C@H](O)[C@H](C)C[C@H](CC=O)[C@H](O[C@@H]2OC(C)[C@@H](O[C@H]3CC(C)(OC(C)=O)[C@@H](OC(=O)CC)C(C)O3)C(N(C)C)C2O)[C@H]1OC (some centres unmarked) [Example 94] | 1 (≈ 0.972 µM) | 4 (≈ 3.89 µM) | 0.5 (≈ 0.486 µM) | 0.06 (≈ 0.0583 µM) | 0.015 (≈ 0.0146 µM) | 0.03 (≈ 0.0291 µM) | 0.5 (≈ 0.486 µM) |  |  |  |  |  |  | 
CCCC(=O)O[C@H]1C(C)O[C@@H](O[C@@H]2C(C)O[C@@H](O[C@H]3[C@@H](CC=O)C[C@@H](C)[C@@H](O)CN(C)CCC[C@H](C/C=C/c4cnc5ccccc5c4)OC(=O)C[C@@H](O)[C@@H]3OC)C(O)C2N(C)C)CC1(C)OC(=O)CC (some centres unmarked) [Example 128] | 1 (≈ 1 µM) | 16 (≈ 16 µM) | 0.5 (≈ 0.5 µM) | 0.06 (≈ 0.06 µM) | 0.03 (≈ 0.03 µM) | 0.03 (≈ 0.03 µM) | 0.13 (≈ 0.13 µM) |  |  |  |  |  |  | 
CCCC(=O)O[C@H]1C(C)O[C@@H](O[C@@H]2C(C)O[C@@H](O[C@H]3[C@@H](CC=O)C[C@@H](C)[C@@H](O)CN(C)CCC[C@H](C/C=C/c4cncc5ccccc45)OC(=O)C[C@@H](O)[C@@H]3OC)C(O)C2N(C)C)CC1(C)OC(=O)CC (some centres unmarked) [Example 129] | 1 (≈ 1 µM) | 8 (≈ 8 µM) | 0.5 (≈ 0.5 µM) | 0.06 (≈ 0.06 µM) | 0.015 (≈ 0.015 µM) | 0.03 (≈ 0.03 µM) | 0.13 (≈ 0.13 µM) |  |  |  |  |  |  | 
CCC(=O)O[C@@H]1CC(=O)O[C@H](C)C/C=C/C=C/[C@H](O)[C@H](C)C[C@H](CC=O)[C@H](O[C@@H]2O[C@H](C)[C@@H](O[C@H]3C[C@@](C)(O)[C@@H](OC(=O)CC)[C@H](C)O3)[C@H](N(C)C)[C@H]2O)[C@H]1OC [MDM, midecamycin, reference compound] |  |  |  |  |  |  |  | 2 (≈ 2.46 µM) | 2 (≈ 2.46 µM) | 0.5 (≈ 0.614 µM) | 0.25 (≈ 0.307 µM) | 0.25 (≈ 0.307 µM) | 0.5 (≈ 0.614 µM) | > 128

Second part, led by results:

MIC [1, 8] [µg/mL] | MIC [2, 9] [µg/mL] | MIC [3, 10] [µg/mL] | MIC [4, 11] [µg/mL] | MIC [5, 12] [µg/mL] | MIC [6, 13] [µg/mL] | MIC [7, 14] [µg/mL] | SMILES | MIC ([1]; Moraxella catarrhalis, W0506, 20 h) [µg/mL] | MIC ([2]; Haemophilus influenzae, 9334, 20 h) [µg/mL] | MIC ([3]; Staphylococcus aureus, 209P, 20 h) [µg/mL] | MIC ([4]; Streptococcus pyogenes, 20 h) [µg/mL] | MIC ([5]; Streptococcus pneumoniae, 20 h) [µg/mL] | MIC ([6]; Streptococcus pneumoniae, IP692, 20 h) [µg/mL] | MIC ([7]; Streptococcus pneumoniae, TH662, 20 h) [µg/mL]
1 (≈ 0.973 µM) | 4 (≈ 3.89 µM) | 0.25 (≈ 0.243 µM) | 0.03 (≈ 0.0292 µM) | 0.015 (≈ 0.0146 µM) | 0.03 (≈ 0.0292 µM) | 0.25 (≈ 0.243 µM) | CCC(=O)O[C@@H]1CC(=O)O[C@@H](C/C=C/c2cnc3ccccc3c2)CCCN(C)C[C@H](O)[C@H](C)C[C@H](CC=O)[C@H](O[C@@H]2OC(C)[C@@H](O[C@H]3CC(C)(OC(C)=O)[C@@H](OC(=O)CC)C(C)O3)C(N(C)C)C2O)[C@H]1OC (some centres unmarked) [Example 90] |  |  |  |  |  |  | 
4 (≈ 3.89 µM) | 32 (≈ 31.2 µM) | 1 (≈ 0.973 µM) | 0.25 (≈ 0.243 µM) | 0.06 (≈ 0.0584 µM) | 0.13 (≈ 0.127 µM) | 1 (≈ 0.973 µM) | CCC(=O)O[C@@H]1CC(=O)O[C@@H](C/C=C/c2ccc3ccccc3c2)CCCN(C)C[C@H](O)[C@H](C)C[C@H](CC=O)[C@H](O[C@@H]2OC(C)[C@@H](O[C@H]3CC(C)(OC(C)=O)[C@@H](OC(=O)CC)C(C)O3)C(N(C)C)C2O)[C@H]1OC (some centres unmarked) [Example 95] |  |  |  |  |  |  | 
2 (≈ 1.9 µM) | 8 (≈ 7.59 µM) | 0.5 (≈ 0.474 µM) | 0.13 (≈ 0.123 µM) | 0.03 (≈ 0.0285 µM) | 0.06 (≈ 0.0569 µM) | 0.5 (≈ 0.474 µM) | CCC(=O)O[C@@H]1CC(=O)O[C@@H](C/C=C/c2cccc(-c3cccnc3)c2)CCCN(C)C[C@H](O)[C@H](C)C[C@H](CC=O)[C@H](O[C@@H]2OC(C)[C@@H](O[C@H]3CC(C)(OC(C)=O)[C@@H](OC(=O)CC)C(C)O3)C(N(C)C)C2O)[C@H]1OC (some centres unmarked) [Example 108] |  |  |  |  |  |  | 
